Test system: 379773-124-R-J2-PDC complex spheroids, viability % test/control
Assay: Anticancer human tumor 379773-124-R-J2-PDC patient-derived endometrial carcinoma cell line growth inhibition [CLK]
Details: for IC50: curve of first compound; for viability, T/C: stronger effect = lower value
Procedure, shortened: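 Multi-cell-type spheroids combined patient-derived tumor cells with HUVEC endothelial cells and human mesenchymal stem cells. Paired agents were dosed in half-log steps down from about clinical Cmax, or from 10 microM where Cmax was unknown.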

[1] = second compound 0.0316 µM, first compound 0.0316 µM
[2] = second compound 0.0316 µM, first compound 0.1 µM
[3] = second compound 0.0316 µM, first compound 0.316 µM
[4] = second compound 0.0316 µM, first compound 1 µM
[5] = second compound 0.1 µM, first compound 0.0316 µM
[6] = second compound 0.1 µM, first compound 0.1 µM
[7] = second compound 0.1 µM, first compound 0.316 µM
[8] = second compound 0.1 µM, first compound 1 µM
[9] = second compound 0.316 µM, first compound 0.0316 µM
[10] = second compound 0.316 µM, first compound 0.1 µM
[11] = second compound 0.316 µM, first compound 0.316 µM
[12] = second compound 0.316 µM, first compound 1 µM
[13] = second compound 1 µM, first compound 0.0316 µM
[14] = second compound 1 µM, first compound 0.1 µM
[15] = second compound 1 µM, first compound 0.316 µM
[16] = second compound 1 µM, first compound 1 µM
[17] = second compound 3.16 µM, first compound 0.0316 µM
[18] = second compound 3.16 µM, first compound 0.1 µM
[19] = second compound 3.16 µM, first compound 0.316 µM
[20] = second compound 3.16 µM, first compound 1 µM
[21] = second compound 10 µM, first compound 0.0316 µM
[22] = second compound 10 µM, first compound 0.1 µM
[23] = second compound 10 µM, first compound 0.316 µM
[24] = second compound 10 µM, first compound 1 µM
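Further: compound exposure lasted seven days before the viability readout.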
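Wherever viability, T/C is given: 100% = DMSO vehicle control wells.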

## C=CC(=O)Nc1cc(Nc2nccc(-c3cn(C)c4ccccc34)n2)c(OC)cc1N(C)CCN(C)C + CNC(=O)c1ccc(Nc2nc(OC3CCCC3)c3c(-c4ccc5nc(C)oc5c4)c[nH]c3n2)c(OC)c1
Second compound 0.0316 µM
  IC50: > 300 nM
Second compound 0.1 µM
  IC50: < 0.949 nM
Second compound 0.316 µM
  IC50: < 0.949 nM
Second compound 1 µM
  IC50: < 0.949 nM
Second compound 3.16 µM
  IC50: < 0.949 nM
Second compound 10 µM
  IC50: < 0.949 nM
Second compound 0.0316 µM, first compound 0.000949 µM
  viability, T/C: 82.7%
Second compound 0.0316 µM, first compound 0.003 µM
  viability, T/C: 84.2%
Second compound 0.0316 µM, first compound 0.00949 µM
  viability, T/C: 78.9%
Second compound 0.0316 µM, first compound 0.03 µM
  viability, T/C: 73%
Second compound 0.0316 µM, first compound 0.0949 µM
  viability, T/C: 77.6%
Second compound 0.0316 µM, first compound 0.3 µM
  viability, T/C: 58.1%
Second compound 0.1 µM, first compound 0.000949 µM
  viability, T/C: 35.2%
Second compound 0.1 µM, first compound 0.003 µM
  viability, T/C: 37%
Second compound 0.1 µM, first compound 0.00949 µM
  viability, T/C: 42.6%
Second compound 0.1 µM, first compound 0.03 µM
  viability, T/C: 31.2%
Second compound 0.1 µM, first compound 0.0949 µM
  viability, T/C: 32.5%
Second compound 0.1 µM, first compound 0.3 µM
  viability, T/C: 38%
Second compound 0.316 µM, first compound 0.000949 µM
  viability, T/C: 44.7%
Second compound 0.316 µM, first compound 0.003 µM
  viability, T/C: 39.9%
Second compound 0.316 µM, first compound 0.00949 µM
  viability, T/C: 32%
Second compound 0.316 µM, first compound 0.03 µM
  viability, T/C: 34.5%
Second compound 0.316 µM, first compound 0.0949 µM
  viability, T/C: 31.3%
Second compound 0.316 µM, first compound 0.3 µM
  viability, T/C: 26.2%
Second compound 1 µM, first compound 0.000949 µM
  viability, T/C: 45.4%
Second compound 1 µM, first compound 0.003 µM
  viability, T/C: 39%
Second compound 1 µM, first compound 0.00949 µM
  viability, T/C: 31.2%
Second compound 1 µM, first compound 0.03 µM
  viability, T/C: 28.8%
Second compound 1 µM, first compound 0.0949 µM
  viability, T/C: 26.6%
Second compound 1 µM, first compound 0.3 µM
  viability, T/C: 30.4%
Second compound 3.16 µM, first compound 0.000949 µM
  viability, T/C: 30.1%
Second compound 3.16 µM, first compound 0.003 µM
  viability, T/C: 37.5%
Second compound 3.16 µM, first compound 0.00949 µM
  viability, T/C: 32.5%
Second compound 3.16 µM, first compound 0.03 µM
  viability, T/C: 34.3%
Second compound 3.16 µM, first compound 0.0949 µM
  viability, T/C: 25.7%
Second compound 3.16 µM, first compound 0.3 µM
  viability, T/C: 28.2%
Second compound 10 µM, first compound 0.000949 µM
  viability, T/C: 30.9%
Second compound 10 µM, first compound 0.003 µM
  viability, T/C: 30.1%
Second compound 10 µM, first compound 0.00949 µM
  viability, T/C: 27.1%
Second compound 10 µM, first compound 0.03 µM
  viability, T/C: 35.1%
Second compound 10 µM, first compound 0.0949 µM
  viability, T/C: 28%
Second compound 10 µM, first compound 0.3 µM
  viability, T/C: 25.9%

## CCN1CCN(Cc2ccc(Nc3ncc(F)c(-c4cc(F)c5nc(C)n(C(C)C)c5c4)n3)nc2)CC1 + CNC(=O)c1ccc(Nc2nc(OC3CCCC3)c3c(-c4ccc5nc(C)oc5c4)c[nH]c3n2)c(OC)c1
Second compound 0.0316 µM
  IC50: > 1000 nM
Second compound 0.1 µM
  IC50: < 3.16 nM
Second compound 0.316 µM
  IC50: < 3.16 nM
Second compound 1 µM
  IC50: < 3.16 nM
Second compound 3.16 µM
  IC50: < 3.16 nM
Second compound 10 µM
  IC50: < 3.16 nM
Second compound 0.0316 µM, first compound 0.00316 µM
  viability, T/C: 74.5%
Second compound 0.0316 µM, first compound 0.01 µM
  viability, T/C: 77.5%
[1]
  viability, T/C: 75.4%
[2]
  viability, T/C: 76.6%
[3]
  viability, T/C: 87.1%
[4]
  viability, T/C: 81.5%
Second compound 0.1 µM, first compound 0.00316 µM
  viability, T/C: 32.6%
Second compound 0.1 µM, first compound 0.01 µM
  viability, T/C: 48.7%
[5]
  viability, T/C: 40.5%
[6]
  viability, T/C: 31.1%
[7]
  viability, T/C: 42.7%
[8]
  viability, T/C: 37.2%
Second compound 0.316 µM, first compound 0.00316 µM
  viability, T/C: 31.9%
Second compound 0.316 µM, first compound 0.01 µM
  viability, T/C: 41.5%
[9]
  viability, T/C: 40%
[10]
  viability, T/C: 38%
[11]
  viability, T/C: 44.6%
[12]
  viability, T/C: 31.5%
Second compound 1 µM, first compound 0.00316 µM
  viability, T/C: 43.2%
Second compound 1 µM, first compound 0.01 µM
  viability, T/C: 30.3%
[13]
  viability, T/C: 31.3%
[14]
  viability, T/C: 30%
[15]
  viability, T/C: 36%
[16]
  viability, T/C: 34.1%
Second compound 3.16 µM, first compound 0.00316 µM
  viability, T/C: 33.8%
Second compound 3.16 µM, first compound 0.01 µM
  viability, T/C: 31.4%
[17]
  viability, T/C: 34.2%
[18]
  viability, T/C: 31.5%
[19]
  viability, T/C: 44.9%
[20]
  viability, T/C: 28.5%
Second compound 10 µM, first compound 0.00316 µM
  viability, T/C: 32.5%
Second compound 10 µM, first compound 0.01 µM
  viability, T/C: 24.3%
[21]
  viability, T/C: 35.7%
[22]
  viability, T/C: 30.9%
[23]
  viability, T/C: 37.3%
[24]
  viability, T/C: 33.2%

## Nc1ccccc1NC(=O)c1ccc(CNC(=O)OCc2cccnc2)cc1 + CNC(=O)c1ccc(Nc2nc(OC3CCCC3)c3c(-c4ccc5nc(C)oc5c4)c[nH]c3n2)c(OC)c1
Second compound 0.0316 µM
  IC50: 1820 nM
Second compound 0.1 µM
  IC50: < 31.6 nM
Second compound 0.316 µM
  IC50: < 31.6 nM
Second compound 1 µM
  IC50: < 31.6 nM
Second compound 3.16 µM
  IC50: < 31.6 nM
Second compound 10 µM
  IC50: < 31.6 nM
[1]
  viability, T/C: 87.7%
[2]
  viability, T/C: 81.9%
[3]
  viability, T/C: 95.7%
[4]
  viability, T/C: 70.6%
Second compound 0.0316 µM, first compound 3.16 µM
  viability, T/C: 29.8%
Second compound 0.0316 µM, first compound 10 µM
  viability, T/C: 7.39%
[5]
  viability, T/C: 32.2%
[6]
  viability, T/C: 40.1%
[7]
  viability, T/C: 36.5%
[8]
  viability, T/C: 27.8%
Second compound 0.1 µM, first compound 3.16 µM
  viability, T/C: 11.5%
Second compound 0.1 µM, first compound 10 µM
  viability, T/C: 5.65%
[9]
  viability, T/C: 44.5%
[10]
  viability, T/C: 40.2%
[11]
  viability, T/C: 27.7%
[12]
  viability, T/C: 25.4%
Second compound 0.316 µM, first compound 3.16 µM
  viability, T/C: 15.3%
Second compound 0.316 µM, first compound 10 µM
  viability, T/C: 4.66%
[13]
  viability, T/C: 39.1%
[14]
  viability, T/C: 29.2%
[15]
  viability, T/C: 28.4%
[16]
  viability, T/C: 20.4%
Second compound 1 µM, first compound 3.16 µM
  viability, T/C: 14.3%
Second compound 1 µM, first compound 10 µM
  viability, T/C: 3.91%
[17]
  viability, T/C: 31.8%
[18]
  viability, T/C: 30.1%
[19]
  viability, T/C: 25.1%
[20]
  viability, T/C: 21.4%
Second compound 3.16 µM, first compound 3.16 µM
  viability, T/C: 12.9%
Second compound 3.16 µM, first compound 10 µM
  viability, T/C: 3.52%
[21]
  viability, T/C: 38.7%
[22]
  viability, T/C: 30.2%
[23]
  viability, T/C: 25.2%
[24]
  viability, T/C: 17.3%
Second compound 10 µM, first compound 3.16 µM
  viability, T/C: 12.2%
Second compound 10 µM, first compound 10 µM
  viability, T/C: 2.97%

Reference: PubChem BioAssay AID2060604 (Molecular Pharmacology Branch, DTP, NCI, 2025)
